Results published in patent US20110112135A1, “Imidazo [1,2-A] Pyridine Compounds” (priority 2007, published 2011).

The molecules below were run against T1, human LXRβ (Homo sapiens, UniProt P55055) (assay: Ligand-binding test procedure for human LXRβ (3H T0901317 tracer, flash plates)). Settings: biotinylated hLXRβ from E. coli extract; tracer 3H T0901317.
T1 construct: biotin (biotinylated); made in house; host or cells: E. coli (crude extract)
T1 sequence (P55055 1-460): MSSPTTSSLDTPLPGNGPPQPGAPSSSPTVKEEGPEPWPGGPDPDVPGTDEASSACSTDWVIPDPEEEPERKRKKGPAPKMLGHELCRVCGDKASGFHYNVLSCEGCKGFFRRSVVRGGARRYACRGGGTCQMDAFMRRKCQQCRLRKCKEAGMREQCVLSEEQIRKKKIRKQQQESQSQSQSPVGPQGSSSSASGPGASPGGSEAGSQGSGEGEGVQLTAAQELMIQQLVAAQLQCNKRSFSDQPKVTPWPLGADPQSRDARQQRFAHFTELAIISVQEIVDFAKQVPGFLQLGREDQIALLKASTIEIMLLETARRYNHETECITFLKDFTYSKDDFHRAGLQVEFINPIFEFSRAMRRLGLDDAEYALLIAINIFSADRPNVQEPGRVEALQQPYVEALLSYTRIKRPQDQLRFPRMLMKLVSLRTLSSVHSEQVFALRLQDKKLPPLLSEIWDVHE
Protocol: I. Ligand-Binding Test Procedure for Human LXRβ.
Receptor source: E. coli extract from cells expressing biotinylated hLXRβ. Extract was made in a similar buffer as above, but with 50 mM TRIS.
Washed streptavidin and coated flash plates with wash buffer. Diluted receptor extract to give Bmax ˜4000 cpm and add to the wells. Wrapped the plates in aluminum foil and stored them at +4° C. over night.
Made a dilution series in DMSO of the test ligands. Made a 5 nM solution of the radioactive tracer in buffer. Mixed 250 μl diluted tracer with 5 μl of the test ligand from each concentration of the dilution series. Washed the receptor-coated flash plates. Added 200 μl per well of the ligand/radiolabel mixture to the receptor-coated flash plates. Wrapped the plates in aluminum foil and incubate at +4° C. over night.
Aspirated wells, and wash the flashed plates. Sealed the plate. Measured the remaining radioactivity in the plate.

IC50 [µM]	SMILES
8.33	CCc1nc2c(C(F)(F)F)cccn2c1-c1ccc(-c2cccc(S(C)(=O)=O)c2)nc1 [Example 87, 2-ethyl-3-{6-[3-(methylsulfonyl)phenyl]pyridin-3-yl}-8-(trifluoromethyl)imidazo[1,2-a]pyridine]
> 1	CCc1nc2c(C#N)cccn2c1-c1ccc(Oc2cccc(S(C)(=O)=O)c2)cc1 [Example 104, 2-ethyl-3-{4-[3-(methylsulfonyl)phenoxy]phenyl}imidazo[1,2-a]pyridine-8-carbonitrile]
> 1	CCc1nc2c(C#N)cccn2c1-c1cccc(COc2cccc(S(C)(=O)=O)c2)c1 [Example 110, 2-ethyl-3-(3-{[3-(methylsulfonyl)phenoxy]methyl}phenyl)imidazo[1,2-a]pyridine-8-carbonitrile]
0.6	CS(=O)(=O)c1cccc(Oc2ccc(-c3c(C(F)(F)F)nc4c(C(F)(F)F)cccn34)cc2)c1 [Example 125, 3-{4-[3-(methylsulfonyl)phenoxy]phenyl}-2,8-bis(trifluoromethyl)imidazo[1,2-a]pyridine]
> 1	CN1CCN(Cc2nc3c(C(F)(F)F)cccn3c2-c2cccc(Oc3cccc(S(C)(=O)=O)c3)c2)CC1 [Example 132, 2-[(4-methylpiperazin-1-yl)methyl]-3-{3-[3-(methylsulfonyl)phenoxy]phenyl}-8-(trifluoromethyl)imidazo[1,2-a]pyridine]
> 1	CNCc1nc2c(C(F)(F)F)cccn2c1-c1cccc(Oc2cccc(S(C)(=O)=O)c2)c1 [Example 134, N-methyl-1-[3-{3-[3-(methylsulfonyl)phenoxy]phenyl}-8-(trifluoromethyl)imidazo[1,2-a]pyridin-2-yl]methanamine]
> 1	CC(C)NCc1nc2c(C(F)(F)F)cccn2c1-c1cccc(Oc2cccc(S(C)(=O)=O)c2)c1 [Example 136, N-{[3-{3-[3-(methylsulfonyl)phenoxy]phenyl}-8-(trifluoromethyl)imidazo[1,2-a]pyridin-2-yl]methyl}propan-2-amine]

Continued, molecule first:

SMILES	IC50 [µM]
CCc1nc2c(C#N)cccn2c1-c1ccc(Oc2cccc(S(=O)(=O)CC)c2)cc1 [Example 107, 2-ethyl-3-{4-[3-(ethylsulfonyl)phenoxy]phenyl}imidazo[1,2-a]pyridine-8-carbonitrile]	> 1
CCc1nc2c(Cl)cccn2c1-c1ccc(COc2cccc(S(C)(=O)=O)c2)cc1 [Example 112, 8-chloro-2-ethyl-3-(4-{[3-(methylsulfonyl)phenoxy]methyl}phenyl)imidazo[1,2-a]pyridine]	> 1
CC(C)c1nc2c(C#N)cccn2c1-c1ccc(Oc2cccc(S(C)(=O)=O)c2)cc1 [Example 123, 2-(1-methylethyl)-3-{4-[3-(methylsulfonyl)phenoxy]phenyl}imidazo[1,2-a]pyridine-8-carbonitrile]	> 1
CCS(=O)(=O)c1cccc(Oc2ccc(-c3c(C(C)C)nc4c(C#N)cccn34)cc2)c1 [Example 124, 3-{4-[3-(ethylsulfonyl)phenoxy]phenyl}-2-(1-methylethyl)imidazo[1,2-a]pyridine-8-carbonitrile]	> 1
